Results published in US12435056B2, “N-lipoic-amino acid or peptide, derivatives and their uses” (NEOSTRATA COMPANY, INC., priority 2016, dated 2025).
Entries after “also recorded” stand apart in the source; their conditions may differ.

Key:
[1] = system: MelanoDerm keratinocyte-melanocyte co-cultures; experiment: MelanoDerm study: melanin content and skin lightening in 3D keratinocyte-melanocyte co-cultures; format: cell-based, human; conditions: for decrease of melanin content compared to control: darkly pigmented MelanoDerm
Protocol: (§1) MelanoDerms are co-culture models of keratinocytes and melanocytes and were used to test the ability of L20 as an anti-melanogenic compound. MelanoDerms were derived from a normal adult with darkly pigmented skin. These tissues were treated for two weeks on consecutive days with different doses of L20. One set of cultures were used for regression study, where it was taken off L20 after a week of treatment. Two weeks after treatment, the tissues were tested for melanin content and cell viability (FIG. 2a). […] The melanin content was assayed using a melanin standard curve.
(§2) MelanoDerm Study: MelanoDerms study was performed as per company instructions (Mattek, Ashland, MA). MelanoDerm tissues were derived from darkly pigmented skin type. The tissues were stabilized for 24 h and then treated with different doses of L20 (25 ul) in WEP modified vehicle. The MelanoDerms were treated for 2 weeks on consecutive days. Microscopic images were taken every other day. After two weeks, MTT assay was performed using Cell Titer 96® Aqueous One Solution and melanin content was assayed as mentioned in the protocol.

[2] = system: procollagen in EpiDerm-FT fibroblast-keratinocyte co-cultures; experiment: Procollagen ELISA in EpiDerm-FT tissue; format: cell-based, human; conditions: L20 1% in WEP vehicle, 48 h, p<0.02, FIG. 3
Protocol: Dermal fibroblast plays an important role in photo-aging and skin homeostasis. We determined if L20 had any anti-aging benefit using dermal fibroblasts. Normal human EpiDerm-FT tissue was used in the study. The Epiderm-FT consists of a fully differentiated epidermal and dermal skin layers. It also has 10-15 layers of stratum corneum and also basal, spinous and granular layers. The tissues were treated with vehicle control and L20 (1%), for 48 h. The tissues were used to measure the expression of procollagen using ELISA assay. The levels of procollagen were normalized to total protein.
L20 was prepared as 1% solution in WEP vehicle consisting of water, ethanol and propylene glycol at native pH. […] The tissue samples were digested using cell lysis buffer and the expression levels of procollagen protein were determined. Procollagen was quantified using standard ELISA technique (Takara Bio Inc.).
Epiderm Study: Epiderm-FT (Mattek, Ashland, MA) was used for the study, derived from neonatal foreskin. […] The cell lysate was analyzed for procollagen using ELISA (Takara, Shiga, Japan) as per instructions and normalized to total protein.

[3] = system: normal human epidermal melanocytes; experiment: Cell viability / L20 toxicity assay (Cell Titer 96 Aqueous One Solution); format: cell-based
Protocol: (§3) L20 is a glycinamide derivative of lipoic acid and was treated on normal human epidermal melanocytes at different doses for 48 h. Doses more than 0.05% L20 appeared to have moderate toxicity (FIG. 1a). We determined the ability of L20 to inhibit melanin synthesis in melanocyte cultures. L20 was used at a non-toxic dose of 0.001% for 7 days (FIG. 1b), their treatment was carried on consecutive days. After a week of treatment, the melanin was extracted and quantified using a melanin standard curve.
Cell culture: Normal human epidermal melanocytes (Lonza, Walkersville, MA) were grown in special melanocyte media MGM4 with supplements (Lonza, Walkersville, MA). Cells were plated and treated with different doses of L20 for 48 h. L20 was initially dissolved in DMSO (100%) and serial dilution were made in media. The stock was diluted a 1000 fold, to have less than […] DMSO in final solution. Microscopic images were taken using 10× magnification. Normal human dermal fibroblasts (Lonza, Walkersville, MA) were grown in special fibroblast growth media (Lonza, Walkersville, MA). […] To test cell viability, Cell Titer 96® Aqueous One Solution Cell Proliferation Assay was used and absorbance was measured colorimetrically at 490 nm using Tecan microplate reader.

[4] = system: MelanoDerm keratinocyte-melanocyte co-cultures; experiment: MelanoDerm survival (MTT assay); format: cell-based, human; conditions: L20 0.5%, two weeks
Protocol: as §1, §2

[5] = system: normal neonatal human epidermal melanocytes; experiment: Melanin reduction assay in melanocyte cultures; format: cell-based
Protocol: as §3
Melanin Reduction assay: Normal human epidermal melanocytes were treated with control or L20 for 7 days, and L20 was replaced on consecutive days. Cells were collected on the 7th day and maintained in Solvable (Perkin Elmer, Akron, OH) overnight at 65 degrees overnight. In parallel, melanin (Sigma, St. Louis, MO) standards were made in Solvable and treated similarly to the samples. Melanin content was then quantified colorimetrically using a Tecan microplate reader at 490 nm.

SMILES	visual skin-lightening effect on melanoderms ([1]; 0.5% and 1%, two weeks, FIG. 2b)	regression study: reversibility of melanin inhibition after removal of L20 ([1]; 0.5% dose group, taken off L20 after one week of treatment)	microscopic observation of melanin ([1]; 24 h after the initial treatment)	decrease of melanin content compared to control ([1]; L20 0.1%, two weeks) [%]	decrease of melanin content compared to control ([1]; L20 0.5%, two weeks) [%]	decrease of melanin content compared to control ([1]; L20 1%, two weeks) [%]	melanin synthesis ([1]; normal adult human Melanoderm 3D co-cultures, FIGS. 2a-d)	procollagen production versus vehicle control, normalized to total protein [2]	non-toxic dose in L20 toxicity assay ([3]; different doses, absorbance at 490 nm) [%]	doses with moderate toxicity ([3]; human, 48 h)	toxicity in MelanoDerm (cell viability) [4]	melanin extracted and quantified from melanocyte cultures ([5]; L20 0.001%, 7 days, versus untreated and DMSO control, FIG. 1c)	melanin synthesis ([5]; normal neonatal human epidermal melanocytes, FIGS. 1a-c)	decrease of melanin content ([1]; positive control, dose not given, two weeks, MelanoDerm) [%]
NC(=O)CNC(=O)CCCCC1CCSS1 (centres unmarked) [L20, N-lipoic glycinamide]	significant skin-lightening effect	reversible inhibition of melanin synthesis	decreased melanin; also recorded: inhibited melanin synthesis	44	56	60	significantly blocks melanin synthesis	significantly increased; also recorded: significantly induces procollagen synthesis; also recorded: induced pro-collagen	≤ 0.001	more than 0.05%	non-toxic	no detectable melanin; also recorded: did not have any measureable melanin	significantly blocks melanin synthesis	
O=c1cc(CO)occ1O [Kojic Acid, reference compound]														27
